The source of these data is publication PMC5253077 (Acta biomaterialia, 2016).

Values after ≈ are worked out from the molar mass of the structure shown. Square brackets hold non-standard residues; d marks the D form. Peptide text beside a SMILES is read from it. A value given as a limit tells only on which side of the number the result lay.

The test system of data set [1] is E. coli ATCC 25922 and ML-35p strains. The following applies: cited from earlier work.
The next data set deals with E. coli ATCC 35218. The following applies: cited from earlier work.
The next data set concerns B. megaterium. Conditions: cited from earlier work.
The next data set has as its system S. aureus ATCC 25923. Conditions: cited from earlier work.
Another data set deals with E. coli K12. The class given is cell-based, Escherichia coli. Conditions: K12, 20 h.
Another data set has as its system S. epidermidis 1457. It counts as cell-based, Staphylococcus epidermidis. The following applies: 1457, 20 h.
The test system of another data set is B. subtilis 168. It counts as cell-based, Bacillus subtilis. The following applies: 168, 20 h.
In data set [2] the test system is S. aureus USA300. The class given is cell-based, Staphylococcus aureus. Conditions: USA300, 20 h.
Data set [3] deals with S. aureus USA300. The class given is cell-based, Staphylococcus aureus.
The test system of another data set is HeLa CCL-2 cells. It counts as cell-based, human.
In data set [4] the test system is Candida albicans ATCC 10231. It counts as cell-based. Conditions: ATCC 10231, 48 h.
For another data set, the system named is C. glabrata ATCC 2001. The class given is cell-based, Candida glabrata. The following applies: ATCC 2001, 48 h.
For another data set, the system named is C. tropicalis ATCC 13803. It counts as cell-based, Candida tropicalis. Conditions: ATCC 13803, 48 h.
For the next data set, the system named is Porcine RBCs. In words: Hemolytic assay. It counts as cell-based, pig. Conditions: 2% blood cells in PBS, 37°C, one hour, hemoglobin at 545 nm.
The next data set deals with Chicken RBCs. The data set can be described thus: Hemolytic assay. The class given is cell-based. Conditions: 2% blood cells in PBS, 37°C, one hour, hemoglobin at 545 nm.
The subject of another data set is Human HEK293. In words: MTS cytotoxicity assay. The following applies: kidney cells. The class given is cell-based. For orientation: Tetrazolium assays rely on reduction of a dye to a coloured formazan, in cell work by metabolically active cells.
Another data set relates to Human HaCaT. The data set can be described thus: MTS cytotoxicity assay. The class given is cell-based. The following applies: skin keratinocytes.
The next data set deals with Human HeLa (HeLa CCL-2). The data set can be described thus: MTS cytotoxicity assay. The class given is cell-based.

Consider `CC[C@H](C)[C@H](NC(=O)[C@H](CCCNC(=N)N)NC(=O)[C@H](CO)NC(=O)[C@H](CC(C)C)NC(=O)[C@H](Cc1ccccc1)NC(=O)[C@H](Cc1ccccc1)NC(=O)[C@@H](N)Cc1ccccc1)C(=O)N[C@@H](Cc1ccccc1)C(N)=O` [Temporin-SHf] (H-FFFLSRIF-NH2; N-terminus and C-terminus assumed), for which the “MIC E. coli ATCC 25922 and ML-35p strains” value in data set [1] was 25 to 30 µM. The “MIC E. coli ATCC 35218” value with E. coli ATCC 35218 is > 200 µM. In the data set with B. megaterium, the “MIC B. megaterium” value was 3 µM (≈ 3.23 µg/mL). In addition, the “MIC S. aureus ATCC 25923” value in the data set on S. aureus ATCC 25923 is 12.5 µM (≈ 13.4 µg/mL).
As to `CC[C@H](C)[C@H](NC(=O)[C@H](CCCNC(=N)N)NC(=O)[C@H](CO)NC(=O)[C@H](CC(C)C)NC(=O)[C@H](Cc1c[nH]c2ccccc12)NC(=O)[C@H](Cc1c[nH]c2ccccc12)NC(=O)[C@@H](N)Cc1c[nH]c2ccccc12)C(=O)N[C@@H](Cc1c[nH]c2ccccc12)C(=O)O` [TetraF2W] (H-WWWLSRIW-OH), the “MIC E. coli K12” value against E. coli K12 is >100 µM. For the same compound, in the data set with S. epidermidis 1457, the “MIC S. epidermidis 1457” value is >50 µM. Further, the “MIC B. subtilis 168” value in the data set on B. subtilis 168 is 6.2 µM (≈ 7.64 µg/mL). Moreover, the “MIC S. aureus USA300” value with S. aureus USA300 [2] was 3.1 to 6.2 µM. The “MBC S. aureus USA300” value with S. aureus USA300 [3] is 6.2 µM (≈ 7.64 µg/mL).
As for `CC[C@@H](C)[C@@H](NC(=O)[C@@H](CCCCN)NC(=O)[C@@H](CCCNC(=N)N)NC(=O)[C@@H](CC(C)C)NC(=O)[C@@H](Cc1c[nH]c2ccccc12)NC(=O)[C@@H](Cc1c[nH]c2ccccc12)NC(=O)[C@H](N)Cc1c[nH]c2ccccc12)C(=O)N[C@H](Cc1c[nH]c2ccccc12)C(=O)O` [TetraF2W-RK-d] (H-[dW][dW][dW][dL][dR][dK][dI][dW]-OH), the “MIC E. coli K12” value against E. coli K12 is 6.2 µM (≈ 7.9 µg/mL). In addition, the “MIC S. epidermidis 1457” value against S. epidermidis 1457 was 6.2 µM (≈ 7.9 µg/mL). Besides, the “MIC B. subtilis 168” value in the data set with B. subtilis 168 amounted to 3.1 µM (≈ 3.95 µg/mL). The “MIC S. aureus USA300” value against S. aureus USA300 [2] came out at 3.1 µM (≈ 3.95 µg/mL). In addition, the “MBC S. aureus USA300” value against S. aureus USA300 [3] was 12.5 µM (≈ 15.9 µg/mL).
`CC[C@H](C)[C@H](NC(=O)[C@H](CCCNC(=N)N)NC(=O)[C@H](CCCNC(=N)N)NC(=O)[C@H](CC(C)C)NC(=O)[C@H](Cc1c[nH]c2ccccc12)NC(=O)[C@H](Cc1c[nH]c2ccccc12)NC(=O)[C@H](Cc1c[nH]c2ccccc12)NC(=O)[C@@H](N)CS)C(=O)N[C@@H](Cc1c[nH]c2ccccc12)C(=O)O` [CysTetraF2W-RR] (H-CWWWLRRIW-OH): the “cytotoxicity of free peptide to HeLa CCL-2 cells” value with HeLa CCL-2 cells was “nontoxic”.
In the case of `CC[C@H](C)[C@H](NC(=O)[C@H](CCCCN)NC(=O)[C@H](CCCCN)NC(=O)[C@H](CC(C)C)NC(=O)[C@H](Cc1c[nH]c2ccccc12)NC(=O)[C@H](Cc1c[nH]c2ccccc12)NC(=O)[C@@H](N)Cc1c[nH]c2ccccc12)C(=O)N[C@@H](Cc1c[nH]c2ccccc12)C(=O)O` [TetraF2W-KK] (H-WWWLKKIW-OH), in the data set with E. coli K12, the “MIC E. coli K12” value lay in the range of 12.5 to 25 µM. For the same compound, the “MIC S. epidermidis 1457” value against S. epidermidis 1457 came to 6.2 µM (≈ 7.72 µg/mL). Moreover, in the data set with B. subtilis 168, the “MIC B. subtilis 168” value was determined as 6.2 µM (≈ 7.72 µg/mL). In addition, in the data set on S. aureus USA300 [2], the “MIC S. aureus USA300” value is 3.1 to 6.2 µM; the “MIC against S. aureus USA300, 150 mM NaCl” value (shortened to “MIC … 150 mM NaCl”) fell in the range of 3.1 to 6.2 µM; the “MIC against S. aureus USA300, pH 6.8” value was 12.5 μM; the “MIC against S. aureus USA300, Normal medium (pH 7.4)” value (shortened to “MIC … (pH 7.4)”) was 3.1–6.2 μM. Besides, the “MIC against S. aureus USA300, pH 8” value against S. aureus USA300 [2] stood at 3.1 μM. Also, in the data set with S. aureus USA300 [3], the “MBC S. aureus USA300” value is >25 µM. Further, the “MIC Candida albicans” value in data set [4] was 6.2 µM (≈ 7.72 µg/mL). Further, the “MIC Candida glabrata” value against C. glabrata ATCC 2001 is 6.2 to 12.5 µM. The “MIC Candida tropicalis” value in the data set with C. tropicalis ATCC 13803 came to 1.6 µM (≈ 1.99 µg/mL). Also, the “LC50 (50% hemolytic concentration) Porcine RBCs” value in the data set on Porcine RBCs was 55 µM. Further, in the data set with Chicken RBCs, the “LC50 (50% hemolytic concentration) Chicken RBCs” value worked out at 50 µM. For the same compound, the “LC50 Human HEK293” value in the data set on Human HEK293 turned out to be 50 µM. Moreover, the “LC50 Human HaCaT” value in the data set on Human HaCaT was 50 µM. Also, the “LC50 Human HeLa” value with Human HeLa (HeLa CCL-2) stood at 70 µM.
`CC[C@H](C)[C@H](NC(=O)[C@H](CCCNC(=N)N)NC(=O)[C@H](CCCCN)NC(=O)[C@H](CC(C)C)NC(=O)[C@H](Cc1c[nH]c2ccccc12)NC(=O)[C@H](Cc1c[nH]c2ccccc12)NC(=O)[C@@H](N)Cc1c[nH]c2ccccc12)C(=O)N[C@@H](Cc1c[nH]c2ccccc12)C(=O)O` [TetraF2W-KR] (H-WWWLKRIW-OH): the “MIC E. coli K12” value in the data set with E. coli K12 lay in the range of 12.5 to 25 µM. In the data set on S. epidermidis 1457, the “MIC S. epidermidis 1457” value was 12.5 µM (≈ 15.9 µg/mL). Besides, the “MIC B. subtilis 168” value against B. subtilis 168 amounted to 6.2 µM (≈ 7.9 µg/mL). Moreover, in the data set with S. aureus USA300 [2], the “MIC S. aureus USA300” value was 3.1 µM (≈ 3.95 µg/mL); the “MIC … 150 mM NaCl” value is 3.1 µM (≈ 3.95 µg/mL); the “MIC against S. aureus USA300, pH 6.8” value amounted to 6.2 μM; the “MIC … (pH 7.4)” value amounted to 3.1 μM. Besides, in the data set on S. aureus USA300 [2], the “MIC against S. aureus USA300, pH 8” value was 3.1 μM. Besides, the “MBC S. aureus USA300” value against S. aureus USA300 [3] is 12.5 µM (≈ 15.9 µg/mL). In addition, the “MIC Candida albicans” value in [4] is 12.5 µM (≈ 15.9 µg/mL). In the data set on C. glabrata ATCC 2001, the “MIC Candida glabrata” value was 12.5 µM (≈ 15.9 µg/mL). In addition, in the data set with C. tropicalis ATCC 13803, the “MIC Candida tropicalis” value lay in the range of 3.1 to 6.2 µM. Besides, the “LC50 (50% hemolytic concentration) Porcine RBCs” value in the data set with Porcine RBCs was determined as 50 µM. Also, the “LC50 (50% hemolytic concentration) Chicken RBCs” value in the data set with Chicken RBCs was 35 µM. Moreover, the “LC50 Human HEK293” value with Human HEK293 was found to be 55 µM. Moreover, the “LC50 Human HaCaT” value with Human HaCaT turned out to be 60 µM. Also, in the data set with Human HeLa (HeLa CCL-2), the “LC50 Human HeLa” value worked out at 100 µM.
Turning to `CC[C@H](C)[C@H](NC(=O)[C@H](CCCCN)NC(=O)[C@H](CCCNC(=N)N)NC(=O)[C@H](CC(C)C)NC(=O)[C@H](Cc1c[nH]c2ccccc12)NC(=O)[C@H](Cc1c[nH]c2ccccc12)NC(=O)[C@@H](N)Cc1c[nH]c2ccccc12)C(=O)N[C@@H](Cc1c[nH]c2ccccc12)C(=O)O` [TetraF2W-RK] (H-WWWLRKIW-OH), in the data set on E. coli K12, the “MIC E. coli K12” value came out at 25 µM (≈ 31.8 µg/mL). Further, the “MIC S. epidermidis 1457” value against S. epidermidis 1457 was determined as 6.2 µM (≈ 7.9 µg/mL). The “MIC B. subtilis 168” value against B. subtilis 168 is 6.2 µM (≈ 7.9 µg/mL). In addition, in the data set with S. aureus USA300 [2], the “MIC S. aureus USA300” value stood at 3.1 µM (≈ 3.95 µg/mL); the “MIC … 150 mM NaCl” value was found to be 3.1 µM (≈ 3.95 µg/mL); the “MIC against S. aureus USA300, pH 6.8” value came out at 6.2 μM; the “MIC … (pH 7.4)” value is recorded as 3.1 μM. Further, in the data set with S. aureus USA300 [2], the “MIC against S. aureus USA300, pH 8” value amounted to 3.1 μM. Further, the “MBC S. aureus USA300” value against S. aureus USA300 [3] came to 12.5 µM (≈ 15.9 µg/mL). In addition, the “MIC Candida albicans” value in data set [4] was determined as 12.5 µM (≈ 15.9 µg/mL). Besides, the “MIC Candida glabrata” value against C. glabrata ATCC 2001 turned out to be 12.5 µM (≈ 15.9 µg/mL). In addition, in the data set on C. tropicalis ATCC 13803, the “MIC Candida tropicalis” value was 3.1 to 6.2 µM.
